Common to all, as to assay: NanoBRET CELLinib128
Holding throughout (type): binding
For orientation: In BRET a luciferase serves as donor, and the signal depends on an acceptor being close.

The target in one assay is T1, MLTK (Homo sapiens, UniProt Q9NYL2).
T1 construct: Full-length kinase ORF (Promega, Madison, WI, USA) cloned in frame with a NanoLuc-vector was transfected into HEK293T cells; host or cells: HEK293T
Particulars: 100% no effect, 0% complete tracer displacement, read-out: Tracer bound. As for the experimental part:
(§1) To get an impression about the binding strength of the PROTAC MA191 and the reference inhibitor MA68 to other kinases besides FLT3-ITD the binding on a kinase panel of further 128 representative protein kinases at 1 μM concentration was tested using the NanoBRET^TM cellular target engagement assay (CELLinib128 assay, CELLinib GmbH, Frankfurt, Germany). […] In none of the 128 kinases MA191 was able to displace the tracer (inhibitor) used by more than 50%, Table S1, Supplementary Information).
(§2) The CELLinib128 assay was performed by CELLinib GmbH, Frankfurt (Germany) as described previously. In brief: Full-length kinase ORF (Promega, Madison, WI, USA) cloned in frame with a NanoLuc-vector was transfected into HEK293T cells in Opti-MEM without phenol red (Life Technologies, Carlsbad, CA, USA) at a density of 2 × 10^5 cells/mL using FuGENE HD (Promega, E2312) and proteins were allowed to express for 20 h. For CDKs, where indicated below, an excess of an activator without an NLuc-fusion was cotransfected. […] The system was allowed to equilibrate at 37 °C for 2 h and 5% CO2 prior to BRET measurements. For PKCs, a chemical activator PMA was added in a final concentration of 1 µM was added together with test compounds and tracers (Promega, V1171). To measure BRET, NanoBRET^TM NanoGlo substrate + extracellular NanoLuc inhibitor (Promega, N2160) were added as per the manufacturer’s protocol, and filtered luminescence was measured (450 nm BP filter (donor) and 610 nm LP filter (acceptor)). For the 1-shot test compounds, data were normalized to the tracer control and the background control or control compound plateau and an average and SD were calculated. […] For the control compounds competitive displacement data were normalized to the tracer Ctrl and the background Ctrl and then plotted and fitted using GraphPad Prism 10 software using a normalized 3-parameter curve fit with the following equation: Y = 100/(1 + 10^X−LogIC50).

A further assay deals with T2, CDK14-CCNY (Homo sapiens, UniProt O94921).
T2 construct: Full-length kinase ORF (Promega, Madison, WI, USA) cloned in frame with a NanoLuc-vector was transfected into HEK293T cells; host or cells: HEK293T
Particulars: 1 µM; 100% no effect, 0% complete tracer displacement. As for the experimental part: as §1, §2

For the next assay, the target named is T3, PRKACB (Homo sapiens, UniProt P22694).
T3 construct: Full-length kinase ORF (Promega, Madison, WI, USA) cloned in frame with a NanoLuc-vector was transfected into HEK293T cells; host or cells: HEK293T
Particulars: 100% no effect, 0% complete tracer displacement, read-out: Tracer bound. As for the experimental part: as §1, §2

The next assay has as its target T4, ERN1 (Homo sapiens, UniProt O75460).
T4 construct: Full-length kinase ORF (Promega, Madison, WI, USA) cloned in frame with a NanoLuc-vector was transfected into HEK293T cells; host or cells: HEK293T
As to conditions: 100% no effect, 0% complete tracer displacement, read-out: Tracer bound. The procedure:
as §1, §2

A further assay concerns the target T5, MUSK (Homo sapiens, UniProt O15146).
T5 construct: Full-length kinase ORF (Promega, Madison, WI, USA) cloned in frame with a NanoLuc-vector was transfected into HEK293T cells; host or cells: HEK293T
Particulars: 100% no effect, 0% complete tracer displacement, read-out: Tracer bound. As for the experimental part: as §1, §2

The target in another assay is T6, CSNK2A2 (Homo sapiens, UniProt P19784).
T6 construct: Full-length kinase ORF (Promega, Madison, WI, USA) cloned in frame with a NanoLuc-vector was transfected into HEK293T cells; host or cells: HEK293T
Particulars: 100% no effect, 0% complete tracer displacement, read-out: Tracer bound. The procedure:
as §1, §2

The target of the next assay is T7, PHKG1 (Homo sapiens, UniProt Q16816).
T7 construct: Full-length kinase ORF (Promega, Madison, WI, USA) cloned in frame with a NanoLuc-vector was transfected into HEK293T cells; host or cells: HEK293T
Particulars: 100% no effect, 0% complete tracer displacement, read-out: Tracer bound. The procedure:
as §1, §2

A further assay concerns the target T8, TRKA (Homo sapiens, UniProt P04629).
T8 construct: Full-length kinase ORF (Promega, Madison, WI, USA) cloned in frame with a NanoLuc-vector; host or cells: HEK293T
Particulars: 100% no effect, 0% complete tracer displacement, read-out: Tracer bound. As for the experimental part:
as §1, §2

The next assay addresses T9, DCLK3 (Homo sapiens, UniProt Q9C098).
T9 construct: Full-length kinase ORF (Promega, Madison, WI, USA) cloned in frame with a NanoLuc-vector was transfected into HEK293T cells; host or cells: HEK293T
Particulars: 100% no effect, 0% complete tracer displacement, read-out: Tracer bound. The procedure:
as §1, §2

The next assay addresses T10, SRMS (Homo sapiens, UniProt Q9H3Y6).
T10 construct: Full-length kinase ORF (Promega, Madison, WI, USA) cloned in frame with a NanoLuc-vector was transfected into HEK293T cells; host or cells: HEK293T
Particulars: 100% no effect, 0% complete tracer displacement, read-out: Tracer bound. The procedure: as §1, §2

The next assay concerns the target T11, NUAK1 (Homo sapiens, UniProt O60285).
T11 construct: Full-length kinase ORF (Promega, Madison, WI, USA) cloned in frame with a NanoLuc-vector was transfected into HEK293T cells; host or cells: HEK293T
As to conditions: 1 µM; 100% no effect, 0% complete tracer displacement. As for the experimental part: as §1, §2

The next assay addresses T12, NEK3 (Homo sapiens, UniProt P51956).
T12 construct: Full-length kinase ORF (Promega, Madison, WI, USA) cloned in frame with a NanoLuc-vector was transfected into HEK293T cells; host or cells: HEK293T
As to conditions: 100% no effect, 0% complete tracer displacement, read-out: Tracer bound. The procedure: as §1, §2

The target in the next assay is T13, RPS6KA2 (Homo sapiens, UniProt Q15349).
T13 construct: Full-length kinase ORF (Promega, Madison, WI, USA) cloned in frame with a NanoLuc-vector was transfected into HEK293T cells; host or cells: HEK293T
As to conditions: 100% no effect, 0% complete tracer displacement, read-out: Tracer bound. The procedure:
as §1, §2

The target of another assay is T14, SIK1 (Homo sapiens, UniProt P57059).
T14 construct: Full-length kinase ORF (Promega, Madison, WI, USA) cloned in frame with a NanoLuc-vector was transfected into HEK293T cells; host or cells: HEK293T
As to conditions: 1 µM; 100% no effect, 0% complete tracer displacement. The procedure: as §1, §2

The next assay has as its target T15, MAP4K5 (Homo sapiens, UniProt Q9Y4K4).
T15 construct: Full-length kinase ORF (Promega, Madison, WI, USA) cloned in frame with a NanoLuc-vector was transfected into HEK293T cells; host or cells: HEK293T
Particulars: 100% no effect, 0% complete tracer displacement, read-out: Tracer bound. As for the experimental part: as §1, §2

T14 sequence (P57059 whole entry): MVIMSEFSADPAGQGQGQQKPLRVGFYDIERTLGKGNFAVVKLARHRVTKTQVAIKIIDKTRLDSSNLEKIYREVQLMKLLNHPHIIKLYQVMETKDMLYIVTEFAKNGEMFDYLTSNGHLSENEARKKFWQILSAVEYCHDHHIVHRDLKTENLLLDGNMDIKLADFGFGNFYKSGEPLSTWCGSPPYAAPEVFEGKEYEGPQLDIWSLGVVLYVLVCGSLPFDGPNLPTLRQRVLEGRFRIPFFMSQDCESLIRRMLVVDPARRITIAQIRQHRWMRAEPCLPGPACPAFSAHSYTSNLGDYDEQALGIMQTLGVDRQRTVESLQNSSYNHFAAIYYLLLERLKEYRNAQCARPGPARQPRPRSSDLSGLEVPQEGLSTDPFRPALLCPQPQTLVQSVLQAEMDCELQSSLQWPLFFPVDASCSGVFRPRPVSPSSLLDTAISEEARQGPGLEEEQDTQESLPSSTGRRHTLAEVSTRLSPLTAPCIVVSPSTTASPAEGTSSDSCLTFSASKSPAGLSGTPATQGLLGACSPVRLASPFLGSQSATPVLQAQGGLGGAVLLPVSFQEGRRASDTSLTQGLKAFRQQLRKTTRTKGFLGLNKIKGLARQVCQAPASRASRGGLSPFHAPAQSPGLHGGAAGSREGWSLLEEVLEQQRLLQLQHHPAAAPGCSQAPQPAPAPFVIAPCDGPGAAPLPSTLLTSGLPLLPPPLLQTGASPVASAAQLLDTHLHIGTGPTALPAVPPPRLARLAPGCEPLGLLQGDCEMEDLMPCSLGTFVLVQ
T2 sequence (O94921 whole entry): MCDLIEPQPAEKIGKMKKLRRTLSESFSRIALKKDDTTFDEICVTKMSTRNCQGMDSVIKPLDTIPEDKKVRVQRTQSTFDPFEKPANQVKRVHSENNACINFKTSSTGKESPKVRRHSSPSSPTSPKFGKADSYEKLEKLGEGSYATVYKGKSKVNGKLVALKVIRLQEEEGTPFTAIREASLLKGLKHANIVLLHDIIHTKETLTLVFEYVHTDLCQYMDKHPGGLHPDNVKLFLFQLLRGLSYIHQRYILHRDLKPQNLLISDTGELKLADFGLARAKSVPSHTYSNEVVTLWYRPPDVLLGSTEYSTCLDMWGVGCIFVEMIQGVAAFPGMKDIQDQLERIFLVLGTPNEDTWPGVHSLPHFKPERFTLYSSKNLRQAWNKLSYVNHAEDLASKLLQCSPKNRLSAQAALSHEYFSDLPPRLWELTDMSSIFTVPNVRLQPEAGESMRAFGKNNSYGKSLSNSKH
T2 sequence (Q8ND76 whole entry partner): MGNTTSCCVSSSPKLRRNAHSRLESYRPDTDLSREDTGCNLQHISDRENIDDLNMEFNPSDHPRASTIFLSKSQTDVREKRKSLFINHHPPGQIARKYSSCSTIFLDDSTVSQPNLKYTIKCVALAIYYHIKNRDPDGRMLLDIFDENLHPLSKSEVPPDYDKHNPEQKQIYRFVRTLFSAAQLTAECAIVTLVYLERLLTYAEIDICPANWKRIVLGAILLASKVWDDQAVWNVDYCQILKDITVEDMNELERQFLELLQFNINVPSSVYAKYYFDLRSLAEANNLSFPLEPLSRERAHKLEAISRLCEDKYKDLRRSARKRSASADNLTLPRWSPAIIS
T8 sequence (P04629 33-796): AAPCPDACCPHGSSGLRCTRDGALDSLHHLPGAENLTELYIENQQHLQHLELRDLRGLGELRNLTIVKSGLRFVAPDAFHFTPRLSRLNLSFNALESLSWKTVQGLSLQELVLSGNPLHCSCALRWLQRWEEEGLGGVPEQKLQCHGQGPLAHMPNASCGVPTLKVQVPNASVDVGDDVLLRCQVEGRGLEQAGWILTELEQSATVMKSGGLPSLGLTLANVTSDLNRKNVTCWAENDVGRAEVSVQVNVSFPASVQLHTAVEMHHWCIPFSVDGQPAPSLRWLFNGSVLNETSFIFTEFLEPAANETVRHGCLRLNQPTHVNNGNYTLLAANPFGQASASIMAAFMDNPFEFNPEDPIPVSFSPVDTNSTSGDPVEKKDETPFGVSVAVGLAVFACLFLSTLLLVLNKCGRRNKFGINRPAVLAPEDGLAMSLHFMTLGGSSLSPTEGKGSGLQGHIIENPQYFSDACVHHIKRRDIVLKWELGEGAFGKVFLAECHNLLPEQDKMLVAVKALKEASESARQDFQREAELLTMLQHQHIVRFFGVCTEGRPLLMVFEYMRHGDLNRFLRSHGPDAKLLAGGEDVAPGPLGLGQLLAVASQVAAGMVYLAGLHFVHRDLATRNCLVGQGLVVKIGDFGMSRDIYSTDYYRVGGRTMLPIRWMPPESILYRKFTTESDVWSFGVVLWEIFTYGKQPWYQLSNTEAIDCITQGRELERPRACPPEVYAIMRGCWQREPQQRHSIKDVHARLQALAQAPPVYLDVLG
T12 sequence (P51956 whole entry): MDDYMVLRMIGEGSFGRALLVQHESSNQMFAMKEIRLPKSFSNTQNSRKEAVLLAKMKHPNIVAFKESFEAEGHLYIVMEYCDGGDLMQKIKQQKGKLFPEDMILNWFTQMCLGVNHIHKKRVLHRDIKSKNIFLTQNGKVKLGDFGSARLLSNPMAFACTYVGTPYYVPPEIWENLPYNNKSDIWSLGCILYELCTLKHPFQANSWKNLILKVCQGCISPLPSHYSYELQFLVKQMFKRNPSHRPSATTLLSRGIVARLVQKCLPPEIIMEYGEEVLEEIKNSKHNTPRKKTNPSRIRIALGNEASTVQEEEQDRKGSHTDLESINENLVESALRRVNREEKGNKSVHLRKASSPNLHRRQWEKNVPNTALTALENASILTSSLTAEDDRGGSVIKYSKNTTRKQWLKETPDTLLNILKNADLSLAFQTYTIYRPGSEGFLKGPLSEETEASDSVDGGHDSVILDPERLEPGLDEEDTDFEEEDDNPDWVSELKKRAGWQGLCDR
T9 sequence (Q9C098 whole entry): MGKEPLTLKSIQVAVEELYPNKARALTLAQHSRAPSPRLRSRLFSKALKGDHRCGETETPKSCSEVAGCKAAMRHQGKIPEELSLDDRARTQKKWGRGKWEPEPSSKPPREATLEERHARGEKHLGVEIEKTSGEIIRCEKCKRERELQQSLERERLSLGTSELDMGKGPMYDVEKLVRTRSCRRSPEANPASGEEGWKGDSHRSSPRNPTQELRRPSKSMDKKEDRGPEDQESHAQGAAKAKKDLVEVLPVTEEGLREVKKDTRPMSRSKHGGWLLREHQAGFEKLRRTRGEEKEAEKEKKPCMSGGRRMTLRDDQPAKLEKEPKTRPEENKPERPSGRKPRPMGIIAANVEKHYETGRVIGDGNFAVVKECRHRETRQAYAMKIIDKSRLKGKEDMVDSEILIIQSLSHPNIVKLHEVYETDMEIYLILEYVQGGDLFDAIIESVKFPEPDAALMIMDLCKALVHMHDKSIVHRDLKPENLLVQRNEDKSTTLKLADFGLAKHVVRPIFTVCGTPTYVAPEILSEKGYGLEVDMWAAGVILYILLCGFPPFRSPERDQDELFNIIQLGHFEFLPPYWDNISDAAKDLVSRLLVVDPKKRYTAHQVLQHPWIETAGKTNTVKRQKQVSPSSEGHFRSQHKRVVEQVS
T1 sequence (Q9NYL2 whole entry): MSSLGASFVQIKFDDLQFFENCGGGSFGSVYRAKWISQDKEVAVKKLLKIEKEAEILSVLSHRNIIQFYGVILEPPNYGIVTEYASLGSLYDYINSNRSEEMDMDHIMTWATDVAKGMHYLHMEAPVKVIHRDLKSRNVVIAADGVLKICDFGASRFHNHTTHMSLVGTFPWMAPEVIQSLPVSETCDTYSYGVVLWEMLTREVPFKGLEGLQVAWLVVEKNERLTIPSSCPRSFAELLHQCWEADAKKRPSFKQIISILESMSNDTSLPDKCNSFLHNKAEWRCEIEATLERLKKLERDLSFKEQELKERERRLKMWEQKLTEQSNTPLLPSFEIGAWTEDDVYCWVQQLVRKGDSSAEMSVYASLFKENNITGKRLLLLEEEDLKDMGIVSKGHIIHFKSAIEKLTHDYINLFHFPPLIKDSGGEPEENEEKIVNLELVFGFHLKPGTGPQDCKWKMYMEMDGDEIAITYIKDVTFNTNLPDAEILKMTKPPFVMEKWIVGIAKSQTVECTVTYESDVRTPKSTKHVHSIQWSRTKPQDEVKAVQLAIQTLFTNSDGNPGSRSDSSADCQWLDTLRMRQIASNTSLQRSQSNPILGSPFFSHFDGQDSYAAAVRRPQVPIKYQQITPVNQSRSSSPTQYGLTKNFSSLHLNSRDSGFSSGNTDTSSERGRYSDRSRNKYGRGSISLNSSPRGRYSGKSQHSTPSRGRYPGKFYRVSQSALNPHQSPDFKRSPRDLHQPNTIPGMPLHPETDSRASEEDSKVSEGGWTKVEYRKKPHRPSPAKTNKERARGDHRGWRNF
T11 sequence (O60285 whole entry): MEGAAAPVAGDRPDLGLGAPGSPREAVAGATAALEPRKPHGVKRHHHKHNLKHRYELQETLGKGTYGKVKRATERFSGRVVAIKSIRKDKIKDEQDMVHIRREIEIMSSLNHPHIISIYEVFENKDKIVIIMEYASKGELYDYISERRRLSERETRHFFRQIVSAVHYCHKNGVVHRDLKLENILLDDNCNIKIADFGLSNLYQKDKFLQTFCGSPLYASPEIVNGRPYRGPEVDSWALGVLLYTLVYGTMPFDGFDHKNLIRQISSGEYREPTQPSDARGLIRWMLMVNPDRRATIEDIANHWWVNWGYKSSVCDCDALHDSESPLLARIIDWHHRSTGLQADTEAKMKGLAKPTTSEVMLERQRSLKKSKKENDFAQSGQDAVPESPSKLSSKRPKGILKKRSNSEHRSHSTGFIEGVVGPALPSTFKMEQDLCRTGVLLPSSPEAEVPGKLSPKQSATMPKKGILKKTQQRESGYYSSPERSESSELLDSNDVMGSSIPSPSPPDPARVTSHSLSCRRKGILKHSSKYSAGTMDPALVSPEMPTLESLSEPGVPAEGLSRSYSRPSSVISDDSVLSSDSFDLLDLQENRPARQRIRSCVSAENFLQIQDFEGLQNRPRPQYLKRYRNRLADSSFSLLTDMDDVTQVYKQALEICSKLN

Regarding `Cc1ncsc1-c1ccc([C@H](C)NC(=O)[C@@H]2C[C@@H](O)CN2C(=O)[C@@H](NC(=O)[C@H]2CC[C@H](C(=O)N3CCN(CCNC(=O)c4cc(Oc5ccc(NC(=O)Nc6cc(C(C)(C)C)on6)cc5)ccn4)CC3)CC2)C(C)(C)C)cc1` [MA191, 4-(4-(3-(5-(tert-Butyl)isoxazol-3-yl)ureido)phenoxy)-N-(2-(4-(trans-4-(((S)-1-((2S,4R)-4-hydroxy-2-(((S)-1-(4-(4-methylthiazol-5-yl)phenyl)ethyl)carbamoyl)pyrrolidin-1-yl)-3,3-dimethyl-1-oxobutan-2-yl)carbamoyl)cyclohexanecarbonyl)piperazin-1-yl)ethyl)picolinamide], the remaining activity at 1 µM on MLTK was 54.8%; at PRKACB, 106%; on ERN1, 116%; at MUSK it was 66%; at CSNK2A2, 114%; on PHKG1, 93.5%. For the same compound, the remaining activity at 1 µM at TRKA came to 103%; on DCLK3, 102%; at SRMS it was 94.4%; at NEK3, 100%; at RPS6KA2 it was 114%; at MAP4K5, 94%. In addition, the values for the Tracer bound at CDK14-CCNY, at NUAK1 and on SIK1 were 95.7%, 120.0% and 115.0%, respectively.
